Values quoted from earlier work in US20090048261A1, “Pharmaceutical Composition for Treatment of Ocular Hypertension” (priority 2007, published 2009).
Where “and” joins values, the source holds several entries; their conditions need not be identical. Identical values can stand only once. Like-named read-outs stand apart in the source and are kept apart here. Values belong to the compound of their own block, whether it stands above or below them.

How the values were obtained:
[1] = test system: patients with glaucoma or ocular hypertension; settings: for difference in effectiveness of brimonidine and dorzolamide: jointly used with topical beta-blockers, Cantor
[2] = test system: alpha-2-andrenergic receptors; settings: compared with clonidine
[3] = test system: carbonic anhydrase isoenzyme; settings: after 4 weeks of bilateral treatment
[4] = test system: primary open-angle glaucoma patients; settings: 30 patients
[5] = topical

Compound: Brimonidine tartrate
time of peak ocular antihypertensive effects (topical administration of ophthalmic solution): 2 to 3 h

Compound: CC(C)OC(=O)CCC/C=C\C[C@@H]1[C@@H](CC[C@@H](O)CCc2ccccc2)[C@H](O)C[C@@H]1O [latanoprost]
increase in pulsating ocular blood flow [4]: 2.15 µL/s
reduction of intraocular pressure [4]: 3.75 mmHg

Now from value to compound, other results behind:

selectivity to alpha-2 adrenergic receptors [2]: higher selectivity
Compound: Brc1c(NC2=NCCN2)ccc2nccnc12 [brimonidine]
effectiveness in reducing ocular hypertension, brimonidine at 0.2% versus dorzolamide at 2% ([1]; joint therapy with topical beta-blockers, adults with ocular hypertension, Simmons): more effective
additive effect of intraocular pressure reduction ([1]; joint treatment to topical beta-blocker therapy): 5 mmhg and 3.7 mmhg
difference in effectiveness of brimonidine and dorzolamide [1]: no statistically significant differences

decrease of carbonic anhydrase isoenzyme's activity, of its basic activity [3]: 21%
binding to plasma proteins (plasma proteins): ~33%
Compound: CCN[C@H]1C[C@H](C)S(=O)(=O)c2sc(S(N)(=O)=O)cc21 [dorzolamide]
additional reduction of intraocular pressure when added to topical brimonidine ([1]; dorzolamide at 2%, patients with intraocular pressure of at least 22 mm Hg, 30 days, Ermis): up to 29%
reduction of intraocular pressure when added to timolol ([1]; human, in vivo): 20%
difference in effectiveness of brimonidine and dorzolamide [1]: no statistically significant differences

effect over pupil size or accommodation [5]: little or no effect
Compound: CC(C)(C)NC[C@H](O)COc1nsnc1N1CCOCC1 [timolol]
systemic effects after absorption [5]: decrease in heart rate, cardiac arrhythmia and bronchial spasm
time over which ocular antihypertensive effect is maintained (chronic use): up to three years
duration of effect (one drop of timolol at 0.5%): over 24 hours
start of the drug's action (one drop of timolol at 0.5%): after an hour
time of peak effect (one drop of timolol at 0.5%): 2 h
start of the drug's action (one drop, topical ocular instillation): within a single hour
duration of significant reduction of intraocular pressure (single dose): up to 24 hours
